Experiments:
Type in all cases: binding
[1] = target: broad panel of kinases (Homo sapiens, UniProt Q13177); conditions: PAK2; 1 μM
[2] = target: broad panel of kinases (Homo sapiens, UniProt P42684); conditions: ABL2; 1 μM
[3] = target: broad panel of kinases (Homo sapiens, UniProt Q9HAZ1); conditions: CLK4; 1 μM
[4] = target: broad panel of kinases (Homo sapiens, UniProt Q13627); conditions: DYRK1A; 1 μM

broad panel of kinases (Homo sapiens, UniProt Q13177), sequence (Q13177 2-524 limits assumed): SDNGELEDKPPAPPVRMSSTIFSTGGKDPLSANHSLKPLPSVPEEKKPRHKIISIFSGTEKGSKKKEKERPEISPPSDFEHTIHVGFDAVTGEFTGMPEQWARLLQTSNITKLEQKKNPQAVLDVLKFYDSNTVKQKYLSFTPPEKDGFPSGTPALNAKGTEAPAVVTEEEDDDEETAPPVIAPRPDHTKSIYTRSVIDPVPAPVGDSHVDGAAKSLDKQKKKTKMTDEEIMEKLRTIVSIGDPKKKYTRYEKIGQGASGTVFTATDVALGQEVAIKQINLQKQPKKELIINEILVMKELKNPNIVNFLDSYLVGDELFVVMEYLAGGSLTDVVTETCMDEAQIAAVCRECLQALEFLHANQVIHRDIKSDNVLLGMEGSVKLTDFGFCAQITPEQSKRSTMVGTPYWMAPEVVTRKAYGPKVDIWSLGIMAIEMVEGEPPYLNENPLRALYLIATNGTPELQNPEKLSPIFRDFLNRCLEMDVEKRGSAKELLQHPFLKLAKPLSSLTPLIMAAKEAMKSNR
broad panel of kinases (Homo sapiens, UniProt P42684), sequence (P42684 2-1182 limits assumed): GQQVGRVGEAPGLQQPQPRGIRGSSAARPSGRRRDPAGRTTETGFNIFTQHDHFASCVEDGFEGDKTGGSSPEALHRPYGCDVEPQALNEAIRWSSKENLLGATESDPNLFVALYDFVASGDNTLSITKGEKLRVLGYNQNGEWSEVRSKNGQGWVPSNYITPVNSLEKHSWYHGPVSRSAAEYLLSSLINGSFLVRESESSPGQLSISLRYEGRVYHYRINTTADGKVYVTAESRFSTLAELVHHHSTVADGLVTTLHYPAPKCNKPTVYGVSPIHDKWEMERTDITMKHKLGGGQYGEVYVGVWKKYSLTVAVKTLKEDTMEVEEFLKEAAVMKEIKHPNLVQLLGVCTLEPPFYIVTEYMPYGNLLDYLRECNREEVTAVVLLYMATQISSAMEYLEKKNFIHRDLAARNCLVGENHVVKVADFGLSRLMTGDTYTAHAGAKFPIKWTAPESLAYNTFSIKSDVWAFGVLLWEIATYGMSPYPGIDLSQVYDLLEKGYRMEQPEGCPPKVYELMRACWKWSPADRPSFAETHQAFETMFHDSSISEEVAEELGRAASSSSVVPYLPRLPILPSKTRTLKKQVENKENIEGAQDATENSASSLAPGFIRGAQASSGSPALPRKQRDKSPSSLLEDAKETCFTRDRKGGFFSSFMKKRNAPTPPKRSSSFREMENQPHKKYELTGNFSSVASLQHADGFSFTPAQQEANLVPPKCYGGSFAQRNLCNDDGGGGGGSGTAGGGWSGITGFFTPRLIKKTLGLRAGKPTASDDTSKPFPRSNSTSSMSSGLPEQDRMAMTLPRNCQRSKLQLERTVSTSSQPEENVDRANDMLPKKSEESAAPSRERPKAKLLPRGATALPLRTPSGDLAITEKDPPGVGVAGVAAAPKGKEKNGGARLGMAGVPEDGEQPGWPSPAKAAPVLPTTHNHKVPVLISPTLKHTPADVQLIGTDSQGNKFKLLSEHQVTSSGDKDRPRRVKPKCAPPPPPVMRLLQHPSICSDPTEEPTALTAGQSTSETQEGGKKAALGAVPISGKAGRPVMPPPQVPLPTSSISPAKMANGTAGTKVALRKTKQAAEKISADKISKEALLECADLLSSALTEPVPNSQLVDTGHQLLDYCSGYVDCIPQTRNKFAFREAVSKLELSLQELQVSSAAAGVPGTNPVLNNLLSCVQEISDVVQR

Structure (SMILES)	percent of control binding remaining (lower = stronger binding) [1] [%]	percent of control binding remaining (lower = stronger binding) [2] [%]	percent of control binding remaining (lower = stronger binding) [3] [%]	percent of control binding remaining (lower = stronger binding) [4] [%]
C=CC(=O)N1CC[C@H](Nc2nc(CN3CCOCC3)cc(Nc3ncc(C(=O)Nc4c(C)cccc4C)s3)n2)C1 [Example I-2]	92	0.3	94	100
C=CC(=O)N1CC[C@H](Nc2nccc(Nc3ncc(C(=O)Nc4c(C)cccc4C)s3)n2)C1 [Example I-3]	93	0.25	85	100
